Reference: a melting point compilation (Tetko et al.; mined from patent text by program, amines drawn as free bases though some values may be those of a salt)

melting point [°C] | SMILES
160 to 162 | COc1cc(C(=O)NCC2c3ccccc3CC(C)N2C(=O)c2ccccc2)cc(OC)c1OC (stereo not given)
118 to 120 | CNC(=O)N1CCC(Oc2ccc(C(F)(F)F)cc2)(c2ccccc2)CC1
259 to 262 | CC(c1oc2ccccc2c(=O)c1-c1cccc(F)c1)n1nc(-c2ccc(S(C)(=O)=O)cc2)c2c(N)ncnc21 (stereo not given)
115 | COc1ccc2c(-c3ccccc3)c(C(=O)c3ccc(Cl)cc3)sc2c1
144 to 148 | CS(=O)(=O)c1nnc(-c2ccccc2Nc2cccc(C(F)(F)F)c2)o1
138 to 139 | COc1ccc(CN2C(=O)C3(COc4cc5onc(C)c5cc43)c3ccccc32)cc1 (stereo not given)
214 to 216 | CCn1c(-c2ccc(F)cc2)c(OCCOc2ccc(C(C)=C3SC(=O)NC3=O)cc2)c(=O)c2ccccc21
137 to 138 | CCCc1c(C#N)c(-c2ccc(C#N)cc2)c(C)n1Cc1cnc(Cl)c(CO)c1
249 | CC(c1ccc(F)cc1)N1CCN(c2cc(Oc3cccc4c(=O)[nH]ccc34)ncn2)CC1 (stereo not given)
300 to 301 | Cc1ccc2nc3n(c(=O)c2c1)-c1ccc(F)cc1C3=O
190 | CCOC(=O)C1C2C(=O)N(Cc3ccccc3)C(=O)C12 (stereo not given)
146 to 148 | O=C(CBr)Nc1ccc(Cl)cc1C(=O)c1c(F)cccc1F
215 to 217 | COc1ccc(-c2cc(C)cn2-c2ccc(S(=O)(=O)NC(C)=O)cc2)cc1
220 to 223 | COC(=O)CNS(=O)(=O)c1ccc(CCN2CC=C(c3c[nH]c(-c4ccc(F)cc4)c3-c3ccncc3)CC2)cc1
144 | CCc1cc(CC(=O)O)ccc1OCc1ccc2ccccc2n1
181 to 184 | CCCCOC(=O)CNC(=O)c1ccc2cc(C(=O)OC)[nH]c2c1
91 to 94 | O=C1CC(=O)c2cc(OCCCOc3ccccc3)ccc21
225 to 230 | CCOC(=O)c1ncc2[nH]c3ccc(C(=S)N4CCCCC4)cc3c2c1C
150 to 152 | CN(Cc1cc2c3c(c1)c(=O)c(C(=O)NCc1ccc(F)cc1)cn3CC(=O)N2C)C[C@@H](O)c1ccsc1

melting point [°C] | SMILES
183 to 184 | COc1cc(Nc2nccc(-c3ccc(N4CCCC(CO)C4)nc3)n2)cc(OC)c1OC (stereo not given)
87 to 88 | COc1ccc(CCNC(C)=O)cc1OC1CCCC1
157 to 160 | N#Cc1cc(Cn2cncn2)ccc1-c1ccc(OS(N)(=O)=O)cc1
180 to 181 | CN1CCN(c2ccc(Nc3cc(-c4cccc(N5CCc6c(cc7n6CCCC7)C5=O)c4CO)cn(C)c3=O)nc2)CC1
116 | COc1ccc2oc(Cc3cccc(C(F)(F)F)c3)c(CC#N)c2c1
224 to 225 | CCc1nc(NC(=O)c2cc(Br)ccc2O)sc1-c1ccccc1
94 to 95 | O=C(O)c1nc(-c2ccc(Cl)cc2Cl)c(-c2ccc(Br)cc2)s1
217 to 219 | O=C(Cc1ccc(C(F)(F)F)cc1)NCc1ccc2c(c1)CN(C1CCC(=O)NC1=O)C2=O (stereo not given)
191 to 193 | O=C(O)Cc1c(-c2ccccc2)nn(-c2ccccc2Cl)c1-c1ccccc1
185 to 187 | CCOC(=O)c1sc(N2CCNC2=O)nc1C(F)(F)F
152 to 154 | CCC(C)c1ccc(-n2c(-c3cc(C)c(OCCO)c(C)c3)nc3ccc(OC)cc3c2=O)cc1 (stereo not given)
177 to 178 | Cc1ccc(S(=O)(=O)N(c2ccc(Cl)cc2C(N)=O)C(C)C)cc1
46 to 48 | CCOC(=O)CCc1cc(O)ccc1-c1ccc(-c2cccnc2)c(CO)c1
98 to 101 | O=C(OCc1ccccc1)N1CCc2c([nH]c3ccccc23)C1c1ccc2c(c1)OCO2 (stereo not given)
81.7 to 84 | O=c1oc2c(c(O)c1C(c1ccccc1)C1CC1)CCCCCCC2 (stereo not given)
252 to 254 | Cc1cc2c(c(C3=NNC(=O)CC3C)c1)OCC(=O)N2 (stereo not given)
262 to 263 | CCn1cc(C(=O)O)c(=O)c2cc(F)c(N3CCNC(c4cc5cc(Cl)ccc5o4)C3)cc21 (stereo not given)
132 to 134 | CN1C(=O)[C@@H](NC(=O)OC(C)(C)C)CCc2ccccc21
79.5 to 81 | CN(C)CCCOc1ccc(C(=O)NN)cc1

melting point [°C] | SMILES
137 to 138 | N#Cc1ccc(N2CCN(Cc3cn4cc(Cl)ccc4n3)CC2)c(Cl)c1
108 to 110 | CCOC(=O)C1CN(C(=O)c2cc(OC)c(OC)c(OC)c2)CCN1C(=O)C1=Cc2cc(OC)c(OC)cc2CCC1 (stereo not given)
305 | O=C(Nc1cc2nc(-c3ccc(C(=O)C45CC6CC(CC(C6)C4)C5)cc3)[nH]c2cn1)c1ccccn1
121 to 125 | CC(C)OCCOc1ccc(-c2nc(C(=O)Nc3nccs3)c(-c3ccc(Cl)cc3)[nH]2)cc1
132 to 135 | Cc1cc(C)cc(C(=O)c2c(-c3ccc(OCCN(C)C)cc3)oc3ccccc23)c1
245 to 251 | O=C(Nc1ccccc1F)c1ccc(CN2C(=O)C3(COc4cc5c(cc43)OCCO5)c3ccccc32)cc1 (stereo not given)
212 to 213 | O=C(O)c1cnc(NCc2cccs2)nc1-c1ccccc1
197 | CCOC(=O)C1(C(=O)N(C)c2cccc3cc(-c4nccs4)[nH]c23)CCC1
182 to 184 | CC[C@H](C)[C@H](NC(=O)NCCC1CCCCC1)C(=O)N[C@H](CO)Cc1c[nH]c2ccccc12
116 to 117 | Cc1cc(Oc2c(Cl)cc(C(F)(F)F)cc2Cl)nn1C(=O)NC(C)(C)C
105 to 107 | CCCCCCC(=N)NC(=S)Nc1cccc(C(F)(F)F)c1
91 to 97 | COC(=O)C(O)C(CC(C)C)NC(=O)C(Cc1c[nH]cn1)NC(=O)C(CC(=O)N1CCCCC1)Cc1cccc2ccccc12 (mixture of isomers)
144 to 146 | Cn1cc(C(=O)Nc2ccccc2-c2ccc(Cl)cc2)c(C(F)(F)F)n1
195 to 196 | COC(=O)c1ccc(Oc2c(C)n(CC(=O)O)c3ccc(F)cc23)cc1
> 260 | Cn1ccnc1C1Cn2cc(C(=O)NCc3ccc(Cl)cc3)c(=O)c3cc(CN4CCOCC4)cc(c32)O1 (stereo not given)
238 | CC(=O)NCC1=CC(c2ccccc2)Cc2c1ccc(O)c2O (stereo not given)
85 to 87 | CN1CC(CN)c2c[nH]c3cccc(c23)C1=O (stereo not given)
193 to 196 | CC(C)C(=O)N1CCC(c2nc3cc(-c4ccc(C(N)=O)c(F)c4)ccc3o2)CC1

Continued, compound first:

SMILES | melting point [°C]
COc1cc2c(cc1OC)N(C(=O)c1ccc(-c3ccccc3C(F)(F)F)c(C)c1)Cc1ccc(C(=O)N3CCC(=O)CC3)n1C2 | 132 to 134
BrCCCCCc1nc2ccccc2[nH]1 | 134 to 136
NN=CNCC(=O)NC1CCCCC1 | 232 to 234
O=C1C=CC(O)(c2cc3ccccc3s2)C=C1 | 185 to 188
O[C@@H]([C@H](O)[C@@H](COc1ccccc1)OCc1ccccc1)[C@@H](COc1ccccc1)OCc1ccccc1 | 80
Cc1cc(Br)cnc1NCCCNC1=NS(=O)N=C1N (stereo not given) | 204 to 205
C1CNCCNCCNCCNCCNC1 | 109 to 110
Cc1ccc2occ(-c3ccccc3)c2c1 | 99 to 108
Nc1nc(Cl)c(N)c(NCCO)n1 | 164 to 167
Nc1cc(F)c(-c2cccnc2)c(F)c1 | 141 to 142
CNC(=Nc1cccc(CN(C)C)n1)NC#N | 180 to 181
O=S(=O)(Nc1cc(Br)nc(Br)c1)c1cccc(Cl)c1 | 187 to 189
COc1ccccc1C(=O)c1noc(CC(N)=O)n1 | 149 to 150
COc1ccc(C(=O)CCC#N)cc1 | 94
COC(=O)c1cccc2c1N(CCN(C(C)C)C(C)C)C(=O)/C2=N\NC(N)=O | 192 to 195
CNC1=Nc2sc(Cl)cc2C(c2ccccc2Cl)=NC1 | 259 to 262
Nc1nc2[nH]c(=S)sc2c(=O)[nH]1 | > 300
COC(=O)c1ncoc1C(C)C | 49 to 50
O=[N+]([O-])c1ccc(N2CCN(c3cc(N4CCCC4)nc(N4CCCC4)n3)CC2)cc1 | 200 to 201
CCN(CC)C(=O)c1ccoc1-c1ccc(N(C)C)cc1 | 73 to 74
CC1(COc2cccc(-c3noc4ccsc34)c2)CO1 (stereo not given) | 84 to 85
Cc1cc(C(=O)O)c(C)c2c1S(=O)(=O)CCC2(C)C | 209

SMILES | melting point [°C]
CCn1ncc2c1ncc1c(=O)[nH]c3nc(SC)nn3c12 | > 300
COc1ccc(-c2cc(=Nc3c(C)cc(C)cc3C)n(C)c(=O)n2C)cc1S(C)=O (stereo not given) | 125 to 135
CCOC(=O)CCC1(CCC(=O)OCC)CCC(=O)N1 | 44 to 46
N#CC1=CC(CF)(CF)Oc2ccc([N+](=O)[O-])cc21 | 136 to 137
c1ccc(Nc2ncnc3ncccc23)cc1 | 258
CC(CCNC(=O)c1ccc(Cl)nc1)n1ccnc1 (stereo not given) | 137 to 139
C1CCCCCC(=NOC(=NC2CCCCC2)NC2CCCCC2)CCCCC1 | 108 to 111
O=C(O)CC(CO)C(=O)c1ccc(Cl)c([N+](=O)[O-])c1 (stereo not given) | 210 to 213
COc1cc(OC)nc(Oc2ccccc2C(=O)NS(=O)(=O)C(C)C)n1 | 128 to 130
CCCSc1ccc(Oc2ccc(Cl)c(Cl)c2)nc1C#N | 67 to 69
O=C(O)CCCCCc1c(OCc2ccccc2)ccc2cncn12 | 139 to 141
Cc1c(CO)ncnc1N1CCCC1 | 112 to 114
CC1(C)CCOc2cc(C(=O)O)ccc21 | 173 to 174
NC(=O)c1ccc2[nH]cc(C3=CCNCC3)c2c1 | 225 to 230
CCC(CC)c1ccc(Cl)c2nc(Nc3ccc(Br)cc3C)n(CCCCO)c12 | 151 to 152
Nc1nc(Cl)c2ncn(COCCOC(=O)c3ccccc3)c2n1 | 130 to 134
NC(=O)C(N)Cc1ccc([N+](=O)[O-])cc1 (stereo not given) | 160 to 162
COC1(OC)CCC(O)(c2ccc(F)cc2)CC1 | 94 to 99
CCCCCN(CCC12CC3CC(CC(C3)C1)C2)C(=O)NCc1ccncc1 | 96.5 to 108
Cc1c(N(C)C)ccc(Br)c1N=C1NCCN1 | 157 to 158
CCOC(=O)C1=C(C)NC(CCN(C)C)=C(C(=O)OCC)C1c1ccccc1/C=C(\C)C(=O)OCC (stereo not given) | 109
CC1COCC(C)N1c1cccc([N+](=O)[O-])c1 (stereo not given) | 127 to 128
